This is an account of results in patent publication US11066379B2 (THE TEXAS A&M UNIVERSITY SYSTEM, priority 2018, dated 2021).

SMILES strings stand for the structures. “And” between values parts separate entries of the source, which are not always exact repeats. Equal entries are not always repeated. Some results are limits rather than exact numbers.

One data set concerns the target CypD (Homo sapiens, UniProt P30405). Put plainly: CypD enzyme inhibition assay (PPIase activity). In kind it is biochemical. The note with it: for IC50: CypD 1 nM; for selectivity for CypD over CypA: PPIase IC50 CypA vs CypD. The procedure: The inhibition of the peptidyl-prolyl cis-trans isomerase (PPIase) activity of compounds was determined by following the rate of hydrolysis of N-succinyl-Ala-Ala-Pro-Phe-pnitroanilide by chymotrypsin. CsA was used as positive control. The assay was performed as previously described (Yan, W., Qing, J., Mei, H., Nong, J., Huang, J., Zhu, J., Jiang, H., Liu, L., Zhang, L. and Li, J. Bioorg. Med. Chem. Lett., 2015, 25, 5682-5686) with small modifications. The assay buffer (20 mM Tris-HCl, 50 mM NaCl, pH 7.8), CypD (1 nM) and the compounds at concentrations ranging from 0.001 to 10 μM were pre-cooled at 4° C. for 1 h. After that time, chymotrypsin at 0.4 mg/mL in 1 mM HCl was added to each well. The reaction was initiated by the addition of the peptide (0.1 mg/mL in 500 mM LiCl in THF). The absorbance at 380 nm was monitored every 30 sec for 5 min with a spectrophotometer plate reader. The blank rates of hydrolysis (in absence of CypD) were subtracted from the rates in the presence of the enzyme. The half-maximal inhibitory concentration (IC50) was calculated by fitting the data with a log(inhibitor) vs. response model of GraphPad Prism 5.0 software. All experiments were performed four times.

Data set [1] deals with T1, active human CypA protein (Homo sapiens, UniProt P62937).
T1 construct: Active human CypA full-length protein was from Abcam; purchased Abcam
T1 sequence (P62937 whole entry): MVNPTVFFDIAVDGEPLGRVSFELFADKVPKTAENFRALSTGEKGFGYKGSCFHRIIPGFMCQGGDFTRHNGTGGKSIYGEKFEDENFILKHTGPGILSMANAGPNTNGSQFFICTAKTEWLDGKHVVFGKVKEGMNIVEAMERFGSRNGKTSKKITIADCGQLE
Put plainly: Binding to immobilized CypA by surface plasmon resonance (SPR). The note with it: for immunosuppressive activity (SAR profile, FIG. 2): in words, CypA binding / IL-2 inhibition. The method, then:
Sensor surface activation and ligand immobilization were performed by using HBS-EP as running buffer at a flow rate of 5 μL/min and 25° C. CM5 sensor chips were used as surface where Cyp A or D was immobilized as ligand. The CM5 chip is a glass slide coated with a thin layer of gold with a matrix of carboxymethylated dextran covalently attached. The CM5 chip was activated using an amine coupling kit. […] After activation, the ligand, 100 μg/mL of active human CypA protein dissolved in sodium acetate 10 mM at pH 4.5 was added to be immobilized over a CM5 sensor chip. Finally ethanolamine-HCl was injected to deactivate the remaining active esters and to avoid non-specific binding. […] Once analytes were tested and interaction was observed, individual binding curves were analyzed by determining the kinetic constants of analytes-CypA binding, namely, the observed rate constant (Kobs), the association rate constant (Kass), the dissociation rate constant (Kdiss), and the kinetic equilibrium dissociation constant (KD). At equilibrium, by definition, […]. The pseudo-first order association rate constants Kobs (s^-1) were determined for each compound concentration by using the 1:1 Langmuir association model of BiaEvaluation software (BiaCore, Uppsala, Sweden). Then a representation of Kobs against the corresponding concentration of each compound was done. […] From the equation of these representations, Kass, M^-1 s^-1, gradient of the plot, and […]^-1, intercept of the plot was obtained. Within these two values, the kinetic equilibrium dissociation constant KD for each analyte-CypA binding was obtained. The duration of the sample injection was 2 min at 10 μL/min flow rate. Next, dissociation of bound molecules in HBS-EP buffer flow was studied. The bound drugs were removed from the chip surface before the next injection by adding 1 M Glycine-HCl at pH 2.5 for 1 min. The association phase was used to quantify the compound-CypA or D interactions. All experiments were performed four times.
Background: In SPR one partner is held on a chip, and binding of the other changes the refractive index at the surface.

A further data set concerns the target T2, CypA (Homo sapiens, UniProt P62937).
T2 construct: Active human CypA full-length protein was from Abcam; purchased Abcam
Put plainly: CypA PPIase activity inhibition. Particulars: PPIase IC50 CypA vs CypD. In kind it is biochemical.

The subject of the next data set is SH-SY5Y cells. Put plainly: Intracellular ROS levels (carboxy-H2DCFDA) after H2O2. It is filed as cell-based, human. The note with it: 150 μM H2O2 co-treatment 6 h. The procedure: Intracellular levels of reactive oxygen species (ROS) were determined with carboxy-H2DCFDA (5-(and-6)-carboxy-2′,7′-dichlorodihydrofluorescein diacetate). This dye diffuses through the cellular membrane and is converted by cellular esterases to carboxy-H2DCFH (non-fluorescent). When carboxy-H2DCFH is oxidized by ROS, it becomes fluorescent (Halliwell, B. and Whiteman, M. Br. J. Pharmacol., 2004, 142, 231-255). Cells were seeded at a density of 2.5×10^5 cells/mL in 96-well plates and allowed to attach for 24 h. Following treatment with compounds at various concentrations (1 μM→1 nM) and 150 μM H2O2 for 6 h, SH-SY5Y cells were washed twice with serum-free culture medium. Then, carboxy-H2DCFDA 20 μM dissolved in serum-free culture medium was added to each well and the cells were incubated for 1 h at 37° C. After this incubation, the medium with the fluorescent dye was replaced with PBS and the plate was incubated for 30 min at 37° C. Fluorescence was read at 527 nm, with an excitation wavelength of 495 nm. All experiments were performed four times.

Another data set deals with human T lymphocytes. Put plainly: Viability of human T lymphocytes (MTT assay, 48 h). Particulars: in words. In kind it is cell-based. From the text:
(§1) The MTT (3-[4,5-dimethylthiazol-2-yl]-2,5-diphenyltetrazoliumbromide) assay was used to determine the cytotoxicity of gracilin derivatives in T lymphocytes (Burton, J. D. Methods Mol. Med., 2005, 110, 69-78) and SH-SY5Y cells and the protective effect of these compounds against H2O2 insult in neuroblastoma cells as previously described (Leiros, M., Alonso, E., Sanchez, J. A., Rateb, M. E., Ebel, R., Houssen, W. E., Jaspars, M., Alfonso, A. and Botana, L. M. ACS Chem. Neurosci., 2014, S, 71-80). Human T lymphocytes were cultured in 24 well plates at the concentration of 2.5×10^6 cells/mL and exposed to different compound concentrations (0.01, 0.1, 1 and 10 μM) added to the culture medium. Human T cells were maintained in the presence of the pure compound at 37° C. in humidified 5% CO2/95% air atmosphere for 48 h.
(§2) Saponin was used as cellular death control and its absorbance was subtracted from the other data. After the incubation period with compounds, assay was performed. First cells were centrifuged (1500 rpm, 5 min, 4° C.). The pellets were resuspended in saline solution with MTT (250 μg/mL) and then incubated at 37° C. during 30 min. After washing off excess MTT twice with saline solution, cells were disaggregated with H2O and sonicated for 1 min and the absorbance of the colored formazan salt was measured at 595 nm in a spectrophotometer plate reader. All experiments were performed three times.
(Formazan colour is commonly taken as a measure of viable cells.)

Data set [2] is described as follows: Viability of human T lymphocytes (MTT assay, 48 h). In kind it is cell-based. Particulars: human; 0.1 μM, 48 hours; read-out: decrease in cell viability.
From the text: as §1, §2

Sequence of CypD (P30405 30-207): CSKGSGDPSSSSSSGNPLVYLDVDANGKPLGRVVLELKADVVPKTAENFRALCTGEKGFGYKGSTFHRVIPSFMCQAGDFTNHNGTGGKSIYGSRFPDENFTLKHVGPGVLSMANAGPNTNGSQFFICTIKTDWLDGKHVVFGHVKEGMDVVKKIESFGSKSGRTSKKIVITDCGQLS
T2 sequence (P62937 whole entry): as the sequence (P62937 whole entry) above

With `CC(=O)O[C@H]1O[C@@H](OC(C)=O)[C@@H]2CC[C@](O)(C3(C)CCCC(C)(C)C3)C[C@H]12` (stereo partly drawn) [Compound 22, (1S,3R,3aS,5R,7aR)-5-hydroxy-5-(1,3,3-trimethylcyclohexyl)octahydroisobenzo-furan-1,3-diyl diacetate], the IC50 against CypD was below 500 nM. In addition, in data set [1], the “immunosuppressive activity (SAR profile, FIG. 2)” value was “inactive”. At CypA, the “selectivity for CypA” value was found to be 4 fold. For the same compound, the ROS levels entry with SH-SY5Y cells is on record as “diminishing ROS at two or three concentrations”.
Take `CC(=O)O[C@@H]1OC[C@H]2C=C(C3(C)CCCCC3)CC[C@@H]12` [Compound 27a, (1S,3aS,7aR)-5-(1-methylcyclohexyl)-1,3,3a,6,7,7a-hexahydroisobenzofuran-1-yl acetate]: the IC50 against CypD was below 500 nM. Moreover, the “selectivity for CypD over CypA” value at CypD is “about 3 fold”; at CypD (listed as (−)-27a), around 3 fold. Further, the “immunosuppressive activity (SAR profile, FIG. 2)” value in data set [1] was “inactive”. In the data set on SH-SY5Y cells, the ROS levels result is “diminishing ROS at two or three concentrations”.
Take `CC(=O)O[C@H]1OC[C@@H]2C=C([C@@]3(C)CCCC(C)(C)C3)CC[C@H]12` [Compound 29a, (1R,3aR,7aS)-5-(1,3,3-trimethylcyclohexyl)-1,3,3a,6,7,7a-hexahydroisobenzofuran-1-yl acetate]: on CypD, the IC50 was below 500 nM. In addition, the “impact on T-cell viability” value in the data set with human T lymphocytes is “relatively non-toxic”. The cytotoxicity at 48 h, 0.1 μM in data set [2] is 15 to 25%. Moreover, in data set [1] (SPR, immobilized CypA), the Kd was ~3000 nM and 2800 to 6800 nM.

The term IC50 denotes the concentration at which inhibition is half-maximal. The low end stands for greater potency in that assay, the high end for weaker potency in that assay. A word on the Kd: it is the concentration at which binding is half-saturated.
